Results published in the supplement of paper PMC10307832.

Legend:
Test in all cases: relative viability (nuclei count vs DMSO), 5 days (fraction); higher = more cells survive
[1] = compound: O=C1NC(=O)[C@@H](c2cn3c4c(cccc24)CCC3)[C@@H]1c1c[nH]c2ccccc12 [Tivantinib] + CS(=O)(=O)N1CCN(Cc2cc3nc(-c4cccc5[nH]ncc45)nc(N4CCOCC4)c3s2)CC1 [Pictilisib] (partner 1 µM)
Procedure, shortened: (§1)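 Nuclei were stained with Hoechst during a one-step fixation (final 0.05% Triton X-100, 1% formaldehyde, 1 ug/ml Hoechst) carried out 5 days after dosing, then counted on 4× images. The cells, lung cancer lines in 1536-well plates, had been dosed by pin tool the day after seeding with one drug alone or a fixed anchor-drug dose plus five library-drug doses (not always all listed) in √10 steps. Relative viability is the nuclei count in treated wells divided by that in vehicle wells, and each value is the median of duplicate plates.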

[2] = compound: O=C1NC(=O)[C@@H](c2cn3c4c(cccc24)CCC3)[C@@H]1c1c[nH]c2ccccc12 [Tivantinib] + CC(=O)c1c(C)c2cnc(Nc3ccc(N4CCNCC4)cn3)nc2n(C2CCCC2)c1=O [Palbociclib] (partner 0.5 µM)
Procedure, shortened: as §1

[3] = compound: O=C1NC(=O)[C@@H](c2cn3c4c(cccc24)CCC3)[C@@H]1c1c[nH]c2ccccc12 [Tivantinib] + O=C(c1cc(Cc2n[nH]c(=O)c3ccccc23)ccc1F)N1CCN(C(=O)C2CC2)CC1 [Olaparib] (partner 8 µM)
Procedure, shortened: as §1

[4] = compound: CC1(COc2ccc3c(c2)ncn3-c2ccc3cccc(N4CCC(N)CC4)c3n2)COC1 [Crenolanib] + CC(=O)c1c(C)c2cnc(Nc3ccc(N4CCNCC4)cn3)nc2n(C2CCCC2)c1=O [Palbociclib] (partner 0.5 µM)
Procedure, shortened: as §1

Cell Line | relative viability ([1]; first compound 0.01 µM) | relative viability ([1]; first compound 0.03162 µM) | relative viability ([1]; first compound 0.1 µM) | relative viability ([2]; first compound 0.01 µM) | relative viability ([2]; first compound 0.03162 µM) | relative viability ([2]; first compound 0.1 µM) | relative viability ([3]; first compound 0.01 µM) | relative viability ([3]; first compound 0.03162 µM) | relative viability ([3]; first compound 0.1 µM) | relative viability ([4]; first compound 0.01 µM) | relative viability ([4]; first compound 0.03162 µM) | relative viability ([4]; first compound 0.1 µM) | relative viability ([4]; first compound 0.3162 µM) | relative viability ([4]; first compound 1 µM) | relative viability ([1]; first compound 0.3162 µM) | relative viability ([2]; first compound 0.3162 µM) | relative viability ([3]; first compound 0.3162 µM)
H3255 | 0.466 | 0.494 | 0.485 | 0.298 | 0.303 | 0.331 | 0.599 | 0.588 | 0.57 | 0.303 | 0.309 | 0.325 | 0.301 | 0.315 | – | – | –
HARA | 0.389 | 0.237 | 0.474 | 0.259 | 0.249 | 0.246 | 1.02 | 0.49 | 0.735 | 0.298 | 0.219 | 0.272 | 0.242 | 0.294 | 0.253 | 0.193 | 0.732
HCC-15 | 0.705 | 0.671 | 0.674 | 0.724 | 0.761 | 0.638 | 0.725 | 0.756 | 0.643 | 0.721 | 0.702 | 0.755 | 0.526 | 0.66 | 0.799 | 0.852 | 0.917
HCC-44 | 0.69 | 0.523 | 0.886 | 0.946 | 0.953 | 0.883 | 0.961 | 0.963 | 1.01 | 1.02 | 0.897 | 0.939 | 0.994 | 0.921 | 0.728 | 0.945 | 0.941
HCC-78 | 0.241 | 0.177 | 0.204 | 0.49 | 0.445 | 0.448 | 0.99 | 0.767 | 0.709 | 0.451 | 0.434 | 0.416 | 0.479 | 0.428 | 0.196 | 0.426 | 0.62
HCC-366 | 0.157 | 0.147 | 0.119 | 0.434 | 0.362 | 0.399 | 0.278 | 0.35 | 0.308 | 0.458 | 0.381 | 0.416 | 0.46 | 0.434 | 0.141 | 0.337 | 0.346
HCC-827 | 1.15 | 1.01 | 0.983 | 0.458 | 0.531 | 0.487 | 0.661 | 0.681 | 0.673 | 0.453 | 0.484 | 0.503 | 0.482 | 0.507 | 0.415 | – | –
HOP-62 | 0.708 | – | 0.864 | 0.454 | 0.399 | 0.425 | 0.463 | 0.451 | 0.329 | 0.457 | 0.45 | 0.461 | 0.497 | 0.481 | 0.792 | 0.466 | 0.477
LC-2-ad | 0.462 | 0.354 | 0.479 | 0.46 | 0.442 | 0.515 | 0.684 | 0.685 | 0.692 | 0.476 | 0.466 | 0.505 | 0.541 | 0.442 | 0.511 | 0.456 | 0.706
LCLC-97TM1 | 0.199 | 0.14 | 0.234 | 0.271 | 0.257 | 0.172 | 0.39 | 0.414 | 0.455 | 0.244 | 0.183 | 0.268 | 0.277 | 0.232 | 0.181 | 0.225 | 0.407
LCLC-103H | 0.684 | 0.517 | 0.704 | 0.477 | 0.449 | 0.486 | 0.713 | 0.802 | 0.722 | 0.541 | 0.441 | 0.465 | 0.447 | 0.492 | 0.63 | 0.409 | 0.778
LK-2 | 0.685 | – | 0.567 | 0.643 | 0.472 | 0.69 | 0.903 | 0.639 | 0.73 | 0.667 | 0.532 | 0.88 | 0.734 | 1.06 | 0.496 | 0.369 | 0.687
LOU-NH91 | 0.517 | 0.485 | 0.521 | 0.557 | 0.543 | 0.527 | 0.861 | 0.888 | 0.9 | 0.524 | 0.481 | 0.518 | 0.539 | 0.548 | 0.519 | 0.541 | 0.715
LU99A | 0.288 | 0.308 | 0.292 | 0.393 | 0.427 | 0.392 | 0.272 | 0.267 | 0.251 | 0.411 | 0.453 | 0.4 | 0.432 | 0.441 | 0.287 | 0.366 | 0.254
LXF-289 | 0.815 | 0.769 | 0.703 | 0.563 | 0.563 | 0.545 | 1.02 | 1.05 | 1.01 | 0.628 | 0.595 | 0.62 | 0.648 | 0.618 | 0.817 | 0.584 | 1.02
NCI-H23 | 0.43 | 0.324 | 0.533 | 0.614 | 0.457 | 0.462 | 0.357 | 0.335 | 0.387 | 0.588 | 0.516 | 0.454 | 0.539 | 0.449 | 0.382 | 0.493 | 0.348
